Source: article PMC4552634, “A New Set of Chemical Starting Points with Plasmodium falciparum Transmission-Blocking Potential for Antimalarial Drug Discovery” (PLoS ONE, 2015)
Where two headings read alike, the source gives them in different places.

Tests used:
[1] = tested on: luciferase reaction (BacTiter-Glo); assay: Interference assay (inhibition of the BacTiter-Glo luciferase reaction); format: biochemical; design: concentration or dose not given beside the values; conditions: ATP interference assay
Protocol: To discard possible false-positive results, we performed an interference assay in parallel. […] […]. The ATP solution was made by dissolving ATP powder (ATP standard from the ATPlite 1 step assay kit, reference 6016731, Perkin Elmer) in culture medium. The positive control used was the Luciferase Inhibitor I Calbiochem (Merck, 119113) at 100 μM.

[2] = tested on: P. falciparum stage V gametocytes; assay: Gametocytocidal ATP bioluminescence assay (single point 5 μM and 1 μM, dose-response); format: cell-based, Plasmodium falciparum; conditions: for Ratio IC50 HepG2/IC50 P. falciparum: IC50 HepG2 divided by IC50 P. falciparum gametocytes
Protocol: Purified stage IV-V gametocytes were obtained as previously described [10]. Single point ATP bioluminescence assay and dose–response of positive hits was determined in accordance with the previously published protocol [10].

[3] = tested on: P. falciparum asexual stages; conditions: TCAMS data, cited from earlier work
HepG2 cells = assay: Cytotoxicity in HepG2 cells (intracellular ATP, ATPlite, 48 h); format: cell-based, human; conditions: for IC50: HepG2 cells, IC50 per ratio column head, unit inferred; for Ratio IC50 HepG2/IC50 P. falciparum: IC50 HepG2 divided by IC50 P. falciparum gametocytes
[4] = as above; format: cell-based, human; conditions: human, HepG2 cells
[5] = tested on: P. falciparum stage V gametocytes; assay: microbe, parasite or virus in culture; design: BacTiter-Glo ATP luminescence viability of purified stage V gametocytes in 384-well plates, per cent inhibition versus DMSO; conditions: Plasmodium falciparum, 48 h, read-out: % Inhibition
[6] = P. falciparum gametocytes, average, read-out: IC50 Pf Gametocytes average, IC50 (µM) average
[7] = sexual stages (gametocytes), dose-response, read-out: IC50 sexual
[8] = asexual stages, read-out: IC50 asexual
[9] = Plasmodium falciparum, P. falciparum gametocytes, average, read-out: IC50 Pf Gametocytes average, IC50 (µM) average
[10] = P. falciparum asexual stages, read-out: IC50 (µM) Pf asexual stages
[11] = HepG2, 48 h exposure, intracellular ATP, read-out: IC50 (μM) Cytotoxicity HepG2
[12] = IC50 per ratio column head, unit inferred, read-out: Cytotoxicity in HepG2
[13] = Plasmodium falciparum, sexual stages (gametocytes), dose-response, read-out: IC50 sexual

SMILES | % Control luminiscence [1] [%] | Ratio IC50 HepG2/IC50 P. falciparum [2] | IC50 [2, 6] [µM] | IC50 [2, 7] [µM] | IC50 [3, 8] [µM] | IC50 (HepG2 cells) [nM] | IC50 [2, 9] [µM] | IC50 ([4]; IC50 per ratio column head, unit inferred) [nM] | Ratio IC50 HepG2/IC50 P. falciparum (HepG2 cells) | IC50 [3, 10] [µM] | IC50 at 48 h [4, 11] [µM] | IC50 at 48 h [4, 12] [µM] | IC50 [2, 13] [µM] | IC50 ([2]; Plasmodium falciparum, P. falciparum gametocytes, dose-response, average, read-out: IC50 Pf Gametocytes average IC50 (µM) average) [µM] | inhibition at 5 µM [5] [%] | IC50 at 48 h ([4]; read-out: Cytotoxicity in HepG2 IC50 (µM) Malaria DPU) [µM]
CN1CCN(CCNc2c3ccccc3nc3c2ccc2ccccc23)CC1 [TCMDC-137723] | 100 | 17 | 0.39 | 0.387 | 0.606 | 6600 |  |  |  |  |  |  |  |  |  | 
Nc1ncc(-c2ccc3nccc(-c4ccncc4)c3c2)cc1S(=O)(=O)N1CCOCC1 [TCMDC-134180] | 100 | >3 | 6.9 |  | 0.872 | > 25000 |  |  |  |  |  |  |  |  |  | 
CC(C)CNCc1cccc(-c2cccc(CN(CCCN3CCN(C)CC3)C(=O)NC3CCCCC3)c2)c1 [TCMDC-140633] | 96 | 9 | 1.78 | 1.78 | 0.761 | 16800 |  |  |  |  |  |  |  |  |  | 
c1ccc2c(c1)cc(CNCCCN1CCN(CCCNCc3cc4ccccc4c4ccccc34)CC1)c1ccccc12 [TCMDC-137914] |  | 12 |  |  | 0.204 |  | 1.11 | 13700 | 12 |  |  |  |  |  |  | 
FC(F)(F)c1ccc2[nH]c(-c3ccc(-c4cccc(CNCCN5CCNCC5)c4)cc3)nc2c1 [TCMDC-132864] |  | 16 |  |  | 1.03 |  | 1.08 |  | 16 | 1.03 | 18 | 17.5 |  |  |  | 
Cc1c(Cn2ncc(N3CCC(N)CC3)c(Cl)c2=O)cccc1NC(=O)Nc1ccc(-c2ccccc2)cc1 [TCMDC-141931] |  | 12 |  | 1.18 | 0.697 |  | 1.18 |  | 12 |  |  | 14.5 |  |  |  | 
CN1CCN(CCCNCc2cccc(-c3ccc(CNCCc4ccccc4)cc3)c2)CC1 [TCMDC-140643] |  | 44 |  | 0.413 | 0.781 |  | 0.41 |  | 44 |  |  | 18.2 |  |  |  | 
CCN(CC)C(=NC(=N)NCc1ccc(Cl)cc1)NCCCCCCNC(=NC(=N)NCc1ccc(Cl)cc1)N(CC)CC [TCMDC-131817] |  | >32 |  |  | 0.231 |  | 0.79 |  | >32 |  |  | > 25 |  |  |  | 
NCc1ccc(CNCc2cccc(-c3ccc(-c4nc5cc(C(F)(F)F)ccc5[nH]4)cc3)c2)cc1 [TCMDC-132811] |  | 28 |  | 0.855 | 0.261 |  | 0.86 |  | 28 |  |  | 24.3 |  |  |  | 
CN1CCN(CCCN(Cc2ccc(-c3cccc(CNC4CCCC4)c3)cc2)C(=O)Nc2ccccc2)CC1 [TCMDC-140605] |  | 81 |  | 0.177 | 1.12 |  | 0.18 |  | 81 |  |  | 14.3 |  |  |  | 
Cc1ccc(Nc2nc(-c3ccccn3)cs2)nc1 [TCMDC-125854] | 100 |  |  | 0.159 | 0.752 |  | 0.16 |  |  |  |  |  |  |  |  | 
CCCCN(CCCC)CCCCNc1c2ccccc2nc2ccccc12 [TCMDC-137461] |  | 35 |  |  | 0.148 |  | 0.55 |  | 35 |  |  | 19 |  |  |  | 
CCN(CC)C(=NCCCCCCN=C(NC(=N)c1ccc(Cl)cc1)N(CC)CC)NC(=N)c1ccc(Cl)cc1 [TCMDC-131806] |  | 52 |  |  | 0.381 |  | 0.84 |  | 52 |  |  | 43.6 |  |  |  | 
Cc1cccc2nc(-c3ccc(-c4ccc(CNCc5ccc(CN)cc5)cc4)s3)[nH]c12 [TCMDC-132809] |  | 28 |  | 0.855 | 0.442 |  | 0.86 |  | 28 |  |  | 24 |  |  |  | 
CC(C)CCNC(=N)Nc1ccc(OCCCCCOc2ccc(NC(=N)NCCC(C)C)cc2)cc1 [TCMDC-137614] |  | >49 |  | 0.507 | 1.08 |  | 0.51 |  | >49 |  |  | > 25 |  |  |  | 
CC(C)(C)c1ccc(CN2CCC(CNC(=O)c3cc(-c4cccc(Cl)c4)cs3)C2)cc1 (stereo not shown) [TCMDC-134446] |  | 19 |  |  | 1.16 |  | 0.61 |  | 19 | 1.16 | 11 | 11.3 | 0.605 |  |  | 
c1cc(C2=N[C@H]3CCCC[C@@H]3N2)ccc1OCCCOc1ccc(C2=N[C@@H]3CCCC[C@H]3N2)cc1 [TCMDC-137803] |  | >54 |  | 0.467 | 0.731 |  | 0.47 |  | >54 |  |  | > 25 |  |  |  | 
N=C(N)Nc1nc(-c2ccc(NC(=O)Nc3cccc(-c4csc(NC(=N)N)n4)c3)cc2)cs1 [TCMDC-139559] |  | >17 |  |  | 1.01 |  | 1.43 |  | >17 |  |  | > 25 |  |  |  | 
CC(C)CNCc1cccc(-c2cccc(CN(CCN(C)C)C(=O)Nc3ccccc3)c2)c1 [TCMDC-140592] |  | 24 |  |  | 0.795 |  | 0.66 |  | 24 |  |  | 15.8 |  |  |  | 
COc1ccc(-c2cc(-c3ccc(S(C)(=O)=O)cc3)cnc2N)cn1 [TCMDC-133351] | 100 |  |  |  | 0.187 |  | 1.18 |  |  | 0.19 |  |  | 1.18 |  |  | 
CC1CCCCN1CCCNc1nc(NCc2ccccc2)c2ccccc2n1 (stereo not shown) [TCMDC-137771] |  | 143 |  |  | 0.953 |  | 0.14 |  | 143 | 0.95 | 20 | 20.1 |  |  |  | 
Oc1c(C(Nc2nc3ccccc3s2)c2ccc(OC(F)F)cc2)ccc2cccnc12 (stereo not shown) [TCMDC-124379] |  | 55 |  |  | 0.571 |  | 0.44 |  | 55 |  |  | 24.1 |  |  |  | 
CCOc1ccc2nc3cc(NC(=O)c4ccco4)ccc3c(N)c2c1 [TCMDC-125004] |  | 56 |  |  | 0.802 |  | 0.19 |  | 56 | 0.8 | 10 | 10.3 | 0.185 |  |  | 
Nc1cc(C=Cc2ccc([N+](=O)[O-])o2)nc2ccccc12 [TCMDC-142295] |  | 58 |  |  | 0.367 |  | 0.2 |  | 59 | 0.37 |  | 11.7 |  | 0.21 | 116 | 12
